Measurements reported in patent US10413535B2, “Pharmaceutical compositions comprising an integrin ALPHA4 antagonist for use in treating ocular inflammatory conditions” (AXEROVISION, INC., priority 2015, dated 2019).
“And” between values parts separate entries of the source, which are not always exact repeats. Identical values can stand only once. Like-named read-outs stand apart in the source and are kept apart here.

What was measured:
integrin α4 = biological target: T1, integrin α4 (Homo sapiens, UniProt P13612); test: IC50/IC90 concentrations and required tissue levels quoted in FIG. 6 legend
T1 sequence (P13612 34-1032): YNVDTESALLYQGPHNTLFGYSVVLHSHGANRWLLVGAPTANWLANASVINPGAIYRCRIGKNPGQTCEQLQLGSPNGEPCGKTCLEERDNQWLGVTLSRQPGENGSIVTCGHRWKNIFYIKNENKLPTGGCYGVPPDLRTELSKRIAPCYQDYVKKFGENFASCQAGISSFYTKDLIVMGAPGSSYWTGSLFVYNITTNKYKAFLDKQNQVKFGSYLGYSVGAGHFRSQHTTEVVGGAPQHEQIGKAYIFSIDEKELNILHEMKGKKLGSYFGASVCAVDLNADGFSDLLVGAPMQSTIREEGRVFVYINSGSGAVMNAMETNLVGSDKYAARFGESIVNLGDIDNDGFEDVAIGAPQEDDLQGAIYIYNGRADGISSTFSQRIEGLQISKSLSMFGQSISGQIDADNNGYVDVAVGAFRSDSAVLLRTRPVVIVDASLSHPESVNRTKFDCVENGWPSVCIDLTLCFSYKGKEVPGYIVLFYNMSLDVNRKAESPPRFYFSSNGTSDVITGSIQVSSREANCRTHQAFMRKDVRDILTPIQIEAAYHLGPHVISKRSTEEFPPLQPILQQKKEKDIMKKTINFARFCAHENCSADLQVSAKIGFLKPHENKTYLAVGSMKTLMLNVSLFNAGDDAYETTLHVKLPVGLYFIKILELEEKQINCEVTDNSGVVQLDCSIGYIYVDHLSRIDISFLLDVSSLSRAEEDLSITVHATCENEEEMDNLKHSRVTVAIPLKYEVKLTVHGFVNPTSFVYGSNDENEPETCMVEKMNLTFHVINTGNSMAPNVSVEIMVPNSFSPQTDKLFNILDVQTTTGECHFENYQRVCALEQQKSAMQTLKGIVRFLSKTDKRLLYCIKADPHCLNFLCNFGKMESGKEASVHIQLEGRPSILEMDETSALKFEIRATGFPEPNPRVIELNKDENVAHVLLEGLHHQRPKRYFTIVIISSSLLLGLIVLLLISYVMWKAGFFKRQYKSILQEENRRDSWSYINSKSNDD

[1] = Toxicokinetics in 13-week topical ocular dog study; conditions: in vivo, topical or ocular
Description: GW559090A was given to Beagle Dogs by topical ocular administration for 13 weeks. Animals were dosed six or twelve times per day, with one hour between doses. Treatment groups were: (1) vehicle (12 times a day), (2) 30 mg/mL/occasion given six times a day, (3) 50 mg/mL/occasion given six times a day, or (4) 50 mg/mL/occasion, given 12 times a day.
GW559090A was formulated as a stock solution in 25 mM phosphate buffer with 0.5% sodium chloride to provide a 50 mg/mL stock solution, which was used for administration to Groups 3 or 4, or further diluted with 25 mM phosphate buffer with 0.75% sodium chloride to provide a 30 mg/mL solution for administration to Group 2.
During the 13 week treatment period dogs received daily topical ocular doses of GW559090 or vehicle (12 times a day) at a constant dose volume of 0.06 mL (given 6 or 12 times a day, with one hour between doses). The test article formulation or vehicle was carefully dropped into the everted lower eyelid of the left eye from a suitable distance, to prevent contact of the positive displacement pipette with the eye. The lower and upper lids were then gently held together for approximately five seconds, to prevent loss of dose and aid even distribution across the external ocular surface. The un-dosed eye was not manipulated at any time and served as a within animal untreated control site.

## Cc1ccccc1OCC(=O)N[C@@H](CC(C)C)C(=O)N[C@@H](Cc1ccc(OC(=O)N2CCC(C(N)=O)CC2)cc1)C(=O)O [GW559090, (2S)-3-[4-({[4-(Aminocarbonyl)-1-piperidinyl]carbonyl}oxy)phenyl]-2-[((2S)-4-methyl-2-{[2-(2-methylphenoxy)acetyl]amino}pentanoyl)amino]propanoic acid]
Integrin α4; FIG. 6 legend, read-out: 1050 concentration (converted)
  IC50: ~8 nM and ~8.38 nM
Integrin α4; FIG. 6 legend, read-out: IC90 concentration
  IC90: ~80 nM and ~0.048 µg/mL
Integrin α4; if protein binding is 98%
  Approximate tissue level required to achieve the 1050 concentration: ~400 nM and ~240 ng/mL
Integrin α4; if protein binding is 98%, read-out: Approximate tissue level required to achieve the IC90 concentration
  IC90: ~4 µM and ~2.4 µg/mL
[1]; both sexes, Beagle, 50 mg/mL/occasion, dogs, males and females combined, 50 mg/mL/occasion 12 times a day, Week 13, read-out: AUC0-1 exposure at NOAEL
  AUC(0-t): 11.2 ng·h/mL
[1]; both sexes, Beagle, 50 mg/mL/occasion, dogs, males and females combined, 50 mg/mL/occasion 12 times a day, Week 13, read-out: Estimated AUC0-24 at NOAEL
  Estimated AUC0-24: 134 ng·h/mL
[1]; both sexes, Beagle, dogs, males and females combined, 50 mg/mL/occasion 12 times a day, Week 13, read-out: Cmax at NOAEL
  Cmax: 28.7 ng/mL
[1]; female, beagle, 30 mg/mL/occasion, female dogs, 30 mg/mL, 6 daily doses, Day 1
  Tmax: 30 min
[1]; female, beagle, 30 mg/mL/occasion, female dogs, 30 mg/mL, 6 daily doses, Day 1, read-out: AUC0-1
  AUC(0-t): 5.27 ng·h/mL
[1]; female, beagle, 30 mg/mL/occasion, female dogs, 30 mg/mL, 6 daily doses, Day 1, read-out: AUC0-24
  AUC(0-t): 31.6 ng·h/mL
[1]; female, beagle, 30 mg/mL/occasion, female dogs, 30 mg/mL, 6 daily doses, Day 1, read-out: Cmax
  Cmax: 12.2 ng/mL
[1]; female, beagle, 30 mg/mL/occasion, female dogs, 30 mg/mL, 6 daily doses, Week 4
  Tmax: 22.5 min
[1]; female, beagle, 30 mg/mL/occasion, female dogs, 30 mg/mL, 6 daily doses, Week 4, read-out: AUC0-1
  AUC(0-t): 4.28 ng·h/mL
[1]; female, beagle, 30 mg/mL/occasion, female dogs, 30 mg/mL, 6 daily doses, Week 4, read-out: AUC0-24
  AUC(0-t): 25.7 ng·h/mL
[1]; female, beagle, 30 mg/mL/occasion, female dogs, 30 mg/mL, 6 daily doses, Week 4, read-out: Cmax
  Cmax: 9.34 ng/mL
[1]; female, beagle, 30 mg/mL/occasion, female dogs, 30 mg/mL, 6 daily doses, Week 13
  Tmax: 15 min
[1]; female, beagle, 30 mg/mL/occasion, female dogs, 30 mg/mL, 6 daily doses, Week 13, read-out: AUC0-1
  AUC(0-t): 6.05 ng·h/mL
[1]; female, beagle, 30 mg/mL/occasion, female dogs, 30 mg/mL, 6 daily doses, Week 13, read-out: AUC0-24
  AUC(0-t): 36.3 ng·h/mL
[1]; female, beagle, 30 mg/mL/occasion, female dogs, 30 mg/mL, 6 daily doses, Week 13, read-out: Cmax
  Cmax: 17.5 ng/mL
[1]; female, beagle, 50 mg/mL/occasion, female dogs, 50 mg/mL, 6 daily doses, Day 1
  Tmax: 15 min
[1]; female, beagle, 50 mg/mL/occasion, female dogs, 50 mg/mL, 6 daily doses, Day 1, read-out: AUC0-1
  AUC(0-t): 8.79 ng·h/mL
[1]; female, beagle, 50 mg/mL/occasion, female dogs, 50 mg/mL, 6 daily doses, Day 1, read-out: AUC0-24
  AUC(0-t): 52.7 ng·h/mL
[1]; female, beagle, 50 mg/mL/occasion, female dogs, 50 mg/mL, 6 daily doses, Day 1, read-out: Cmax
  Cmax: 17 ng/mL
[1]; female, beagle, 50 mg/mL/occasion, female dogs, 50 mg/mL, 6 daily doses, Week 4
  Tmax: 15 min
[1]; female, beagle, 50 mg/mL/occasion, female dogs, 50 mg/mL, 6 daily doses, Week 4, read-out: AUC0-1
  AUC(0-t): 5.26 ng·h/mL
[1]; female, beagle, 50 mg/mL/occasion, female dogs, 50 mg/mL, 6 daily doses, Week 4, read-out: AUC0-24
  AUC(0-t): 31.6 ng·h/mL
[1]; female, beagle, 50 mg/mL/occasion, female dogs, 50 mg/mL, 6 daily doses, Week 4, read-out: Cmax
  Cmax: 11.4 ng/mL
[1]; female, beagle, 50 mg/mL/occasion, female dogs, 50 mg/mL, 6 daily doses, Week 13
  Tmax: 10 min
[1]; female, beagle, 50 mg/mL/occasion, female dogs, 50 mg/mL, 6 daily doses, Week 13, read-out: AUC0-1
  AUC(0-t): 6.64 ng·h/mL
[1]; female, beagle, 50 mg/mL/occasion, female dogs, 50 mg/mL, 6 daily doses, Week 13, read-out: AUC0-24
  AUC(0-t): 39.8 ng·h/mL
[1]; female, beagle, 50 mg/mL/occasion, female dogs, 50 mg/mL, 6 daily doses, Week 13, read-out: Cmax
  Cmax: 17.9 ng/mL
[1]; female, beagle, 50 mg/mL/occasion, female dogs, 50 mg/mL, 12 daily doses, Day 1
  Tmax: 30 min
[1]; female, beagle, 50 mg/mL/occasion, female dogs, 50 mg/mL, 12 daily doses, Day 1, read-out: AUC0-1
  AUC(0-t): 12.8 ng·h/mL
[1]; female, beagle, 50 mg/mL/occasion, female dogs, 50 mg/mL, 12 daily doses, Day 1, read-out: AUC0-24
  AUC(0-t): 153 ng·h/mL
[1]; female, beagle, 50 mg/mL/occasion, female dogs, 50 mg/mL, 12 daily doses, Day 1, read-out: Cmax
  Cmax: 21.8 ng/mL
[1]; female, beagle, 50 mg/mL/occasion, female dogs, 50 mg/mL, 12 daily doses, Week 4
  Tmax: 10 min
[1]; female, beagle, 50 mg/mL/occasion, female dogs, 50 mg/mL, 12 daily doses, Week 4, read-out: AUC0-1
  AUC(0-t): 6.77 ng·h/mL
[1]; female, beagle, 50 mg/mL/occasion, female dogs, 50 mg/mL, 12 daily doses, Week 4, read-out: AUC0-24
  AUC(0-t): 81.2 ng·h/mL
[1]; female, beagle, 50 mg/mL/occasion, female dogs, 50 mg/mL, 12 daily doses, Week 4, read-out: Cmax
  Cmax: 14.5 ng/mL
